Experimental data: patent US4726941A, “Acylated cyanamide composition for treating ethanol ingestion” (Regents of the University of Minnesota, priority 1986, dated 1988)
Like-named read-outs stand apart in the source and are kept apart here.

How the values were obtained:
[1] = system: aldehyde dehydrogenase (AlDH); conditions: without enzymatic activation, cited from earlier work
AlDH [2] = assay: Initial screen: elevation of blood acetaldehyde (AcH) after ethanol in rats, prodrug 1.0 mmol/kg ip; type: in vivo; conditions: rat; for potency in elevating ethanol-derived blood AcH (in words): 3 hours post-drug; for elevation of blood AcH over drug-free controls at 3 hours: ethanol 2 g/kg ip at 2 hours, sacrifice 3 hours post-drug; for elevation of blood AcH over controls at 16 hours: ethanol 2 g/kg ip at 15 hours, sacrifice 16 hours post-drug; for duration of action / blood AcH at 16 hours (in words): 16 hours post-drug
Description: Compounds 1-11 were evaluated in rats for their ability to elevate and maintain blood acetaldehyde (AcH) levels following ethanol administration employing the methodology outlined in Table I.
1. Drug Dose: 1.0 mmol/kg (ip)
2. Animals: Male rats of Sprague-Dawley descent (BioLab, Inc., St. Paul, MN), weighing 185-225 g were used. Four animals were used for each drug administration protocol.
3. Timing: Animals were fasted beginning at 7:00 or 8:00 AM. One group of rats were administered the prodrug at 5:00 PM (zero time) and ethanol (2 g/kg, ip) at 8:00 AM (15 hours), and the animals were sacrificed at 9:00 AM (16 hours). A second set of rats received the prodrug at 6:30 AM (zero time) and ethanol at 8:30 AM (2 hours) and the animals were sacrificed at 9:30 AM (3 hours). Cyanamide treated animals (1.0 mmol/kg) served as positive control. Blood AcH levels were determined as described hereinbelow.
(§1) Blood AcH levels were measured 1 hour after ethanol (2 g/kg, ip) in treated and control animals essentially as described by Shirota et al., in J. Med Chem., 23, 669 (1980). The animal was stunned by a quick blow to the head and blood was immediately withdrawn by open chest cardiac puncture. Aliquots (0.2 ml) were placed in 20 ml serum vials containing 1.0 ml of 5 mM sodium azide (to minimize the artifactual generation of AcH from ethanol), and the vials immediately capped with a rubber septum, frozen on Dry Ice, and kept frozen at -20° C. until assayed. AcH was determined in duplicate by the head-space gas chromatographic procedure previously described by Nagasawa et al., in Life Sci., 20, 187 (1977), and quantitated using a standard curve based on standards with known concentrations of AcH.

[3] = Stability of the purified compound on standing; type: physicochemical; conditions: clear colorless liquid, storage at 5° C.
Description: n-Butyryl chloride (3.2 g, 3.12 ml, 0.030 mol) in 50 ml of freshly distilled dry THF was added drop-wise to a suspension of sodium cyanamide (5.76 g, 0.090 mol) in 100 ml of freshly distilled dry THF at ice bath temperature. The reaction was allowed to proceed at room temperature for 24 hours and then the mixture evaporated to dryness in vacuo. The resulting yellow solid residue was dissolved in distilled water (50 ml) and the alkaline solution was adjusted to pH 6.5 with 10% HCl. The mixture was then extracted with ethyl acetate (2×50 ml). […] TLC: Rf =0.6 in EtOAC/petroleum ether/AcOH (50:100:1), detected by UV quenching and orange color with ferricyanide spray reagent; IR (neat, cm^-1) 3100-3250 (NH), 2860-2960 (alkyl), 2260 (C≡N), 1725 (C=0); NMR (Silanor C, δ from TMS) 8.2-8.5 (broad, NH), 2.3-2.6 (t, --CH2 --CH2 --C=O), 1.5-1.9 (sextet, CH3 --CH2 --CH2 --), 0.8-1.1 (t, CH3 --CH2 --); CI--MS (NH 3 : positive) m/z (rel. intensity) 147 (12.6, [(M+1)+2NH3 ]), 130 (100.0) [(M+1)+NH3 ], 105 (5.2) [(M+1)+2NH3 --H2 NCN]; CI--MS (NH3 : negative) m/z (rel. intensity) 111 (100.0) [M-1], 68 (2.0) [(M-1)--CH3 CH2 CH2 ], 41 (16.7) [(M-1)--CH3 CH2 CH=C=O].

AlDH [4] = assay: Time course protocol (72 hour), ip: blood AcH after ethanol in rats; type: in vivo; conditions: rat; for duration of blood AcH elevation over 72-hour time course (in words) / time at which blood AcH elevation reached maximum: FIG. 5 (0.5 mmol/kg); for time at which blood AcH elevation reached maximum: ethanol 2 g/kg ip 1 hour before sacrifice
Description: FIG. 5 is a graphic depiction of the effectiveness of four of the compositions of the invention in elevating blood AcH following ethanol administration in rats over a 72 hour time course (0.5 mmol/kg i.p. dose).
(§2) 1. Drug Dose: 0.5 mmol/kg (ip); 1.0 mmol/kg (po)
(§3) 2. Animals: Male rats of Sprague-Dawley descent (BioLab, Inc., St. Paul, MN), weighing 176-200 g were used. Two animals were used for each drug administration protocol.
(§4) 3. Timing: Overnight fasted animals were administered the prodrug at zero time, ethanol (2 g/kg, ip) at 1, 4, 11, 23, 35, 47 and 71 hours and sacrificed 1 hour subsequent to each ethanol administration. Cyanamide treated animals (1.0 mmol/kg) served as positive control.
as §1

AlDH [5] = assay: Time course protocol (72 hour), oral: blood AcH after ethanol in rats; type: in vivo; conditions: rat, 1.0 mmol/kg po, FIG. 6
Description: FIG. 6 is a graphic depiction of the effectiveness of palmitoylcyanamide and N-benzoyl-L-leucylcyanamide, administered orally, in elevating blood AcH following ethanol administration in rats over a 72 hour time course.
as §2, §3, §4, §1

[6] = rat, within 6 hours; cited from earlier work
[7] = system: aldehyde dehydrogenase (AlDH); conditions: clinical use, background statement; cited from earlier work

Compound: CC(=O)NC#N [AC, acetylcyanamide]
- AlDH inhibitory activity in vitro [1]: devoid of AlDH inhibitory activity in vitro

Compound: CC(=O)NC#N.[Na] [Compound 1, Sodium Acetylcyanamide]
- potency in elevating ethanol-derived blood AcH (in words) (AlDH [2]): much weaker than cyanamide
- elevation of blood AcH over drug-free controls at 3 hours (AlDH [2]): 25 fold

Compound: N#CNC(=O)c1ccccc1 [Compound 2, Benzoylcyanamide]
- elevation of blood AcH over controls at 16 hours (AlDH [2]): 10 fold

Compound: CC(C)(C)C(=O)NC#N [Compound 3, Pivaloylcyanamide]
- potency in elevating ethanol-derived blood AcH (in words) (AlDH [2]): very potent
- duration of action / blood AcH at 16 hours (in words) (AlDH [2]): short acting

Compound: N#CNC(=O)C12CC3CC(CC(C3)C1)C2.N#CNC(=O)C12CC3CC(CC(C3)C1)C2 [Compound 4, 1-Adamantanecarbonyl Cyanamide (1-Adamantoylcyanamide)]
- potency in elevating ethanol-derived blood AcH (in words) (AlDH [2]): very potent
- duration of action / blood AcH at 16 hours (in words) (AlDH [2]): short acting

Compound: CCCC(=O)NC#N [Compound 5, n-Butyrylcyanamide]
- potency in elevating ethanol-derived blood AcH (in words) (AlDH [2]): even more potent than cyanamide itself
- duration of action / blood AcH at 16 hours (in words) (AlDH [2]): short-acting
- elevation of blood AcH over drug-free controls at 3 hours (AlDH [2]): 170 fold
- elevation of blood AcH over controls at 16 hours (AlDH [2]): approximately 20 fold
- stability on standing [3]: decomposes on standing even at 5 °C after prolonged periods

Compound: CCCCCCCCCCCCCCCC(=O)NC#N [Compound 6, Palmitoylcyanamide]
- potency in elevating ethanol-derived blood AcH (in words) (AlDH [2]): almost as potent as cyanamide
- elevation of blood AcH over controls at 16 hours (AlDH [2]): 100 fold
- duration of blood AcH elevation over 72-hour time course (in words) (AlDH [4]): significantly elevated even at 48 hours
- time at which blood AcH elevation reached maximum (AlDH [4]): around 5 hours
- time at which AcH levels once again increased (AlDH [5]): 24 h
- time at which blood AcH fell back to control levels (AlDH [5]): around 36 hours
- time of maximum AcH levels (AlDH [5]): 2 h
- time of trough of AcH levels (AlDH [5]): 12 h

Compound: CCCCCCCCCCCCCCCCCC(=O)NC#N [Compound 7, Stearoylcyanamide]
- potency in elevating ethanol-derived blood AcH (in words) (AlDH [2]): almost as potent as cyanamide
- elevation of blood AcH over controls at 16 hours (AlDH [2]): more than 50 fold
- duration of blood AcH elevation over 72-hour time course (in words) (AlDH [4]): gradually fell
- time at which blood AcH elevation reached maximum (AlDH [4]): around 5 hours

Compound: N#CNC(=O)OCc1ccccc1.[Na] [Compound 8, N-Carbobenzoxycyanamide, Sodium Salt]
- elevation of blood AcH over drug-free controls at 3 hours (AlDH [2]): 120 fold

Compound: N#CNC(=O)CNC(=O)OCc1ccccc1 [Compound 9, N-Carbobenzoxyglycylcyanamide]
- duration of action / blood AcH at 16 hours (in words) (AlDH [2]): reduced to almost control levels
- elevation of blood AcH over drug-free controls at 3 hours (AlDH [2]): more than 80 fold

Compound: N#CNC(=O)CNC(=O)c1ccccc1.N#CNC(=O)CNC(=O)c1ccccc1 [Compound 10, N-Benzoylglycylcyanamide (Hippurylcyanamide)]
- potency in elevating ethanol-derived blood AcH (in words) (AlDH [2]): less potent than N-benzoyl-L-leucylcyanamide (11)
- duration of action / blood AcH at 16 hours (in words) (AlDH [2]): long-acting with significant levels of blood AcH present
- duration of blood AcH elevation over 72-hour time course (in words) (AlDH [4]): failed to maintain elevated blood AcH past 12 hours

Compound: CC(C)C[C@H](NC(=O)c1ccccc1)C(=O)NC#N [Compound 11, N-Benzoyl-L-leucylcyanamide]
- potency in elevating ethanol-derived blood AcH (in words) (AlDH [2]): elevated blood AcH levels
- duration of action / blood AcH at 16 hours (in words) (AlDH [2]): long-acting with significant levels of blood AcH present
- duration of blood AcH elevation over 72-hour time course (in words) (AlDH [4]): continued to maintain elevated blood AcH even at 72 hours
- initial blood AcH level at 2 hours compared with cyanamide (AlDH [4]; FIG. 5, 2 hours): less than cyanamide
- time at which AcH levels once again increased (AlDH [5]): 24 h
- time at which blood AcH fell back to control levels (AlDH [5]): around 36 hours
- time of maximum AcH levels (AlDH [5]): 2 h
- time of trough of AcH levels (AlDH [5]): 12 h

Compound: CC(C)C[C@H](NC(=O)CNC(=O)OCc1ccccc1)C(=O)NC#N [Compound 12, N-Cbz-glycyl-L-leucylcyanamide]
- potency in elevating ethanol-derived blood AcH (in words) (AlDH [2]): more potent than (9)
- duration of action / blood AcH at 16 hours (in words) (AlDH [2]): did not maintain significantly elevated blood AcH level

Compound: N#CNC(=O)[C@@H]1CCC(=O)N1C(=O)OCc1ccccc1 [Compound 13, N-Cbz-L-pyroglutamylcyanamide]
- potency in elevating ethanol-derived blood AcH (in words) (AlDH [2]): not nearly as potent as the other prodrugs

Compound: CC(C)C[C@H](NC(=O)[C@@H]1CCC(=O)N1)C(=O)NC#N [Compound 14, L-Pyroglutamyl-L-leucylcyanamide]
- potency in elevating ethanol-derived blood AcH (in words) (AlDH [2]): not nearly as potent as the other prodrugs

Compound: N#CNC(=O)[C@H](Cc1ccccc1)NC(=O)[C@@H]1CCC(=O)N1 [Compound 15, L-Pyroglutamyl-L-phenylalanylcyanamide]
- potency in elevating ethanol-derived blood AcH (in words) (AlDH [2]): very potent inhibitor of AlDH in vivo
- elevation of blood AcH over drug-free controls at 3 hours (AlDH [2]): more than 110 fold

Compound: N#CN [Cyanamide, cyanamide]
- elevation of blood AcH over drug-free controls at 3 hours (AlDH [2]): 150 fold
- elevation of blood AcH over controls at 16 hours (AlDH [2]): more than 25 fold
- duration of blood AcH elevation over 72-hour time course (in words) (AlDH [4]): fell rapidly almost to control values at 36 hours
- time at which blood AcH elevation reached maximum (AlDH [4]): ≤ 2 h
- AlDH inhibitory activity in vitro ([1]; listed as cyanamide): devoid of AlDH inhibitory activity in vitro
- AlDH inhibitory activity in vitro [1]: does not inhibit AlDH
- administered cyanamide eliminated as acetylcyanamide in the urine [6]: At least 94%

Compound: [Ca+2].[N-]=C=[N-] [calcium carbimide]
- duration of activity [7]: approximately 24 hours
